According to patent US20260115250A1, “METHODS OF TREATING AGE-RELATED MACULAR DEGENERATION” (Character Biosciences, Inc., priority 2022, published 2026):
Peptide text beside a SMILES is read from it.

Columns and labels:
[1] = tested on: ARPE-19 cells; assay: ARPE-19 cell viability assay (Cell Titer Glo); type: cell-based, human; conditions: 100 μM peptide, 1.5 hours
How it was run: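 Adhered ARPE-19 cells exposed to 100 μM peptide (final) in serum-free DMEM:F12 for 1.5 h at 37° C, then washed. Viability by CellTiter-Glo 2.0 luminescence, background corrected, 0% set by 1% Triton-X-100; mean+SD of two runs.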

[2] = target: T1, LDLR (Homo sapiens, UniProt P01130); assay: LDLR binding (SPR), high surfactant preparation; conditions: high surfactant preparation (HBS-P+), 1:1 binding model; read-out: binding KD to LDLR
How it was run: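 Multi-cycle kinetics fitted 1:1: peptide flowed at 30 μL/sec for 120 seconds over immobilised LDLR (amine coupling, CM5, 1000 RU) in running buffer HBS-P+ plus 1 mM CaCl2. Five concentrations per peptide, 1:3 serial from 5 μM; surface regenerated between cycles with 50 mM NaOH/100 mM EDTA.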
Target sequence in this assay (P01130 22-860): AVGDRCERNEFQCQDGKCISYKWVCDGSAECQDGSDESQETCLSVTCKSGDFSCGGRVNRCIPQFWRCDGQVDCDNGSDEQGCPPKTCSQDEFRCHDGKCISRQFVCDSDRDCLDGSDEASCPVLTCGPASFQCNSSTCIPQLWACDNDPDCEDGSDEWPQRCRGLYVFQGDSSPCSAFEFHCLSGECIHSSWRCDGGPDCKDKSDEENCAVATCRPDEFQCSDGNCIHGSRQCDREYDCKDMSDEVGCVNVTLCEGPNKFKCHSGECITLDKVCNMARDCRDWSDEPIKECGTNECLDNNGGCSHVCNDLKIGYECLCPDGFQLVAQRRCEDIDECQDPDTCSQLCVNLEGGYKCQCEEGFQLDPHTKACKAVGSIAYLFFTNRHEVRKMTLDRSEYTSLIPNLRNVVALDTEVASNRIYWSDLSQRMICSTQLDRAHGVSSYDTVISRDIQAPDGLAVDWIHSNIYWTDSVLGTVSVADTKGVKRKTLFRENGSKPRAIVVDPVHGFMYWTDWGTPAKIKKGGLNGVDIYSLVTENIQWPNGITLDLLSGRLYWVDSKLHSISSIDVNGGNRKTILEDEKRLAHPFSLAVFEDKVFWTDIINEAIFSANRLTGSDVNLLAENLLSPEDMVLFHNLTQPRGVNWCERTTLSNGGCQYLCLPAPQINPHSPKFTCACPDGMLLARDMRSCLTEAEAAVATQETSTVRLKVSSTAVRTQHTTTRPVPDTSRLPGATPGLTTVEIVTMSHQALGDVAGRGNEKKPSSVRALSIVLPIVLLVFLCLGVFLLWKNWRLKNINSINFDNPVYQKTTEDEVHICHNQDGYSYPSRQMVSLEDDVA

[3] = target: T1, LDLR; assay: KD (µM)
Source text: Table printed on a drawing sheet, FIG. 23
Title: Buffer: HBS + 0.05% P20
Head of the field: KD (µM)
The patent's description of the figure: FIG. 23 is a table showing the binding kinetics results of LDLR binding assays (SPR), high surfactant preparation as described herein for select peptides shown in FIG. 1A-1I.
First copying reader's note: Right of three side-by-side panels of FIG. 23; the KD cells hold value ± error together.
Where the first naming reader finds the target: description_of_the_figure: FIG. 23 is a table showing the binding kinetics results of LDLR binding assays (SPR), high surfactant preparation
Target sequence in this assay (P01130 22-860 limits assumed): as the sequence (P01130 22-860) above

[4] = target: T2, ABCA1 (Mus musculus, UniProt P41233); assay: membrane ABCA1 stability testing in J774 cells; type: cell-based, murine; conditions: 4 hours
T2 construct: endogenous in cells; host or cells: J774 murine macrophage cells, ABCA1 induced with 8-Br-cAMP and AcLDL
T2 sequence (P41233 whole entry): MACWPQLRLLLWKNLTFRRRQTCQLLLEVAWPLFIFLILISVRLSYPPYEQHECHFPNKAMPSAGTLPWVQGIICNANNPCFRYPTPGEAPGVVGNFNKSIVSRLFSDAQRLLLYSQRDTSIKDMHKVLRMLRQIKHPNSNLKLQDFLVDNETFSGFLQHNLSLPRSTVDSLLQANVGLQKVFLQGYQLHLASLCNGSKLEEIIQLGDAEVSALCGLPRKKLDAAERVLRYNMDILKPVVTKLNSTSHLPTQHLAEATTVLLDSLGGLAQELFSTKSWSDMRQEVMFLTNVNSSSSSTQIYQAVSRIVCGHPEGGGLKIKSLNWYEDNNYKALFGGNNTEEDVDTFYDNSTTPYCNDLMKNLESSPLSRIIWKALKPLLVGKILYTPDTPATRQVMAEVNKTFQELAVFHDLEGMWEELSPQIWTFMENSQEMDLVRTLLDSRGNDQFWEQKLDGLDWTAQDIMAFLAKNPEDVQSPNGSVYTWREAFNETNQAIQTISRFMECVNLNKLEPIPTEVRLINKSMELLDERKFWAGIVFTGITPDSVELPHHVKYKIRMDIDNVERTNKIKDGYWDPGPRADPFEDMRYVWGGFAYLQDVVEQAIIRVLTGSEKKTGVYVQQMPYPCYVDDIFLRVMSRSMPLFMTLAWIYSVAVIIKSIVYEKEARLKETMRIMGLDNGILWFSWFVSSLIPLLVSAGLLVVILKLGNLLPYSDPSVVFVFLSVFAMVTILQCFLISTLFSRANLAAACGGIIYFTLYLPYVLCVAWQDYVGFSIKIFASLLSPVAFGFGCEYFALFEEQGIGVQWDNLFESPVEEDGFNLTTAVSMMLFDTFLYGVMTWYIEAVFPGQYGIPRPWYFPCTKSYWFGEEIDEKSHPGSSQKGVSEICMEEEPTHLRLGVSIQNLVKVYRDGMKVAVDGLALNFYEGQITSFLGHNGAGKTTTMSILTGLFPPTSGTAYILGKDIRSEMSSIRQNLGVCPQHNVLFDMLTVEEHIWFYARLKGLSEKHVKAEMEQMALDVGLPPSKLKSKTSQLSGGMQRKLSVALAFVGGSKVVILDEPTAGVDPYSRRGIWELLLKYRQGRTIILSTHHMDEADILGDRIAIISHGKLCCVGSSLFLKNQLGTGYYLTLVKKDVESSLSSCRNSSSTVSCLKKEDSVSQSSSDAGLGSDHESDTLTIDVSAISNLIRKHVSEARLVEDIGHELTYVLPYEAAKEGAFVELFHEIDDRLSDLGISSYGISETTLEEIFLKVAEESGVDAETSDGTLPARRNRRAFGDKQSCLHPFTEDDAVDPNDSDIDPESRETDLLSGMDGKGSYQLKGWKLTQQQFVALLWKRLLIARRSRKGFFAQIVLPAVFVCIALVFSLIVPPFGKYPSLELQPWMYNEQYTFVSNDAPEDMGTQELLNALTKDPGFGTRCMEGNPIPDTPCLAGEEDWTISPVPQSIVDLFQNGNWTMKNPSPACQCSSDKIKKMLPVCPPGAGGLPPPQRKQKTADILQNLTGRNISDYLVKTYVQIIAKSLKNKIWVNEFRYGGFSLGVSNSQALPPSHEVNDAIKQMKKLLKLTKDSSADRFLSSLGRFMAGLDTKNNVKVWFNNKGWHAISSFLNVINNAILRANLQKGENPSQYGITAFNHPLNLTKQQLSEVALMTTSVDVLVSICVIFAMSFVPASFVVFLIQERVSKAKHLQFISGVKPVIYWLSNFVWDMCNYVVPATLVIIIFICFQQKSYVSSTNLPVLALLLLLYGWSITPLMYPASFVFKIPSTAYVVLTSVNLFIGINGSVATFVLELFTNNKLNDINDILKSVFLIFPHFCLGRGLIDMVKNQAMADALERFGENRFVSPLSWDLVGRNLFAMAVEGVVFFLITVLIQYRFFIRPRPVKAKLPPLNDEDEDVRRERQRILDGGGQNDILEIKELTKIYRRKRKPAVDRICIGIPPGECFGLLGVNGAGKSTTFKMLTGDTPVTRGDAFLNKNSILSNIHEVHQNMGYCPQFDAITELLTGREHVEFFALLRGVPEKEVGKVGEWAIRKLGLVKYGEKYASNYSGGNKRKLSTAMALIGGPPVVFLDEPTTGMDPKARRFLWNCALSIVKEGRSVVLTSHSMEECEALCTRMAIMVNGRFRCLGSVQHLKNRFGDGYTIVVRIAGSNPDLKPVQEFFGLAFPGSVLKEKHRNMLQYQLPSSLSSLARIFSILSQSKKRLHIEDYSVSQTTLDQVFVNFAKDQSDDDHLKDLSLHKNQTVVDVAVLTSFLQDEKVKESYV
Experimental: FIGS. 33A-33C illustrate the results of membrane ABCA1 stability testing in J774 Cells. J774 murine macrophage cells were seeded at 50,000 cells per well on 12-well plates and were allowed to grow to confluence. A vehicle solution of 0.1% BSA in serum-free DMEM was prepared for control wells. An ABCA1 induction solution of 0.1% BSA with 1 mM 8-Br-CAMP and 50 μg/mL AcLDL was prepared in serum-free DMEM and incubated on cells overnight at 37° C. to increase ABCA1 protein levels on the membrane. A solution of 10 μM peptide was prepared in serum-free DMEM and serially diluted 1:10 for 4 concentrations. ApoAI was prepared at a concentration of 300 nM. Peptides or ApoA1 were added to cells for 4 hours at 37° C. before isolating membrane protein and measuring membrane ABCA1 levels by western blot. Blots were quantified in ImageJ and the signal was normalized to membrane Na+/K+ pump levels. Signals were further normalized to the 18-hour cAMP treated group to determine percent (%) Membrane ABCA1 remaining.

CC(C)C[C@H](NC(=O)[C@H](CC(=O)O)NC(=O)[C@H](CCCCN)NC(=O)CNC(=O)[C@H](Cc1ccc(O)cc1)NC(=O)[C@H](CC(=O)O)NC(=O)[C@@H](NC(=O)[C@@H](NC(=O)[C@@H](NC(=O)[C@H](CCC(N)=O)NC(=O)[C@H](Cc1ccccc1)NC(=O)[C@H](Cc1ccc(O)cc1)NC(=O)[C@H](CCC(N)=O)NC(=O)[C@H](CO)NC(=O)[C@@H](NC(=O)[C@H](CC(C)C)NC(=O)[C@H](CO)NC(=O)[C@H](CCCNC(=N)N)NC(=O)[C@H](CC(C)C)NC(=O)[C@H](CC(C)C)NC(=O)[C@H](CCCNC(=N)N)NC(=O)[C@H](CCCCN)NC(=O)[C@H](CCCNC(=N)N)NC(=O)[C@H](CC(C)C)NC(=O)[C@H](CCCCN)NC(=O)[C@H](CCCNC(=N)N)NC(=O)[C@H](CC(C)C)NC(=O)[C@@H](N)Cc1c[nH]cn1)C(C)C)[C@@H](C)O)C(C)C)[C@@H](C)O)C(=O)O [T-109] (H-HLRKLRKRLLRSLVSQYFQTVTDYGKDL-OH)
ARPE-19 cell viability [1]: substantial change in viability | Kd [2]: < 10 µM | Kd [3]: 1.2 ± 0.09 µM

ApoA1: positive control protein ApoA1 (apolipoprotein A1)
membrane ABCA1 levels after washout of 8-Br-cAMP [4]: preserved membrane ABCA1 levels
